Data reported in article PMC10828251, “A novel PSMA-targeting tracer with highly negatively charged linker demonstrates decreased salivary gland uptake in mice compared to [^68Ga]Ga-PSMA-11” (EJNMMI Radiopharmacy and Chemistry, 2024).
“And” between values parts separate entries of the source, which are not always exact repeats. Equal entries are not always repeated. Numbered stars: 1 amine (or outer) side, 2 acyl side, 3 side chain; on linkers, the order of the positions; unused ones are H or OH. Peptide text beside a SMILES is read from it. * marks the point of attachment. DOTA = O=C(O)CN1CCN(CC(=O)O)CCN(CC(=O)*)CCN(CC(=O)O)CC1; γGlu = O=C(O)[CH](CCC(=O)[*:2])N[*:1]; CO = O=C([*:1])[*:2]; Ahx = NCCCCCC(=O)O

Legend:
GCP-II = biological target: T1, GCP-II (Homo sapiens, UniProt Q04609); experiment: fluorescent enzymatic inhibition assay (competitive binding assay; NAAG hydrolysis by PC3-PIP membranes, Amplex Red glutamic acid readout); format: biochemical; conditions: upper limit set from the EC50; read-out: upper limit of Ki to PSMA
T1 construct: expressed in transfected cells; host or cells: PC3-PIP cells: washed membrane preparation after freeze-thaw cycles, 10 µg per well
Protocol: Binding affinity of JB-1498 toward GCP-II was determined using fluorescent enzymatic inhibition assay (Kozikowski et al. [2004]) as detailed in the Additional file 1.
PC3-PIP PSMA expressing cells were grown to confluency, harvested in 50mM Tris-HCl, pH 7.5 and subjected to 4 freezing and thawing cycles. Cell membranes were washed three times by centrifugation at 12,000g or higher. The cell membrane mixture was diluted to a concentration of 50 mg/mL in 50mM Tris-HCl, pH 7.5 (based on wet weight of the solid after centrifugation) and stored in a -80°C freezer until ready to use.
The assays were conducted on 96-well plates. […] Then the glutamic acid concentration was measured with Amplex Red glutamic acid assay kit (Invitrogen-Molecular Probes, now part of Thermo Fisher Scientific, Waltham, MA)) using a fluorescent plate reader (excitation at 530nm, measuring emission at 590nm). The fluorescence signals at 590nm were then normalized and normalized fluorescence was plotted against the Log concentration of JB1498 ligand (Figure 1). EC50 was determined using the equation: Fluorescence = baseline + (max fluorescence – baseline) […]. Microsoft Excel and KaleidaGraph (Synergy Software, Reading, PA) were used for data processing and graphing.

[1] = tested on: PC3-PIP PSMA-expressing cell line; experiment: initial biodistribution study, low molar activity, PC3-PIP tumor-bearing NSG mice; format: in vivo; conditions: 1 hour after injection, specific activity below 7.4 GBq/μmol; for Biodistribution, Tumor: PC3-PIP PSMA+ tumor, NSG mice
Protocol: Radiolabeling of JB-1498 for the initial biodistribution study was performed using [^68Ga]GaCl3 from a spent ^68Ge/^68Ga generator from Isotopen Technologies Garching (Garching, Germany, currently ITM). JB-1498 with [^68Ga]GaCl3 was heated in aqueous sodium acetate buffer at pH 4–5 and 97 C for 7 min. The reaction product was HPLC-purified for the biodistribution study as detailed in the Additional file 1. The molar activity of the purified product was less than 7.4 GBq/μmol (200 Ci/mmol) at the conclusion of synthesis.
For the initial biodistribution study in tumor bearing mice, 3 male 10 week-old NSG mice (NOD.Cg-Prkdc^scidIl2rg^tm1Wjl/SzJ) were inoculated subcutaneously with 4 million cells of PC3-PIP PSMA-expressing cell line. Mice were housed in a specific pathogen free, temperature- and humidity-controlled environment, in standard micro-isolator top cages with ad libitum access to chow. Biodistribution studies were conducted when the long axis of the tumor exceeded 1 cm. Each mouse was injected with 100 μL of the [^68Ga]Ga-JB-1498 solution under isoflurane anesthesia via retro-orbital injection in the right eye and euthanized 1 h after injection. Major organs (including the left salivary glands) were dissected for radioactivity quantification. The dose injected was 0.74 ± 0.27 MBq.

[2] = high molar activity biodistribution study in non-tumor-bearing NSG mice; format: in vivo; conditions: 1 hour after injection, high specific activity 59 GBq/μmol
Protocol: For the high molar activity biodistribution and imaging study, a fresh 1.85 GBq (50mCi) GalliaPharm Gallium-68 generator from Eckert & Ziegler (Berlin, Germany) was used. Radiolabeling of JB-1498 with [^68Ga]GaCl3 was performed in aqueous sodium acetate buffer at pH 4–5 and 98 °C for 10 min. The reaction product was diluted with water, loaded onto an Oasis HLB cartridge, washed with water, and eluted with 2:1 PBS:EtOH as detailed in the Additional file 1. The fractions with highest radioactivity were diluted with saline for injection in mice. Please refer to Additional file 1: Figs. 4 and Fig. 5 for HPLC traces of the products prior to and after solid phase extraction. The molar activity of the purified product was estimated to be 59 GBq/μmol (1600 Ci/mmol) at the time of first injection. [^68Ga]Ga-PSMA-11 was produced concurrently by incubating [^68Ga]GaCl3 and PSMA-11 precursor in sodium acetate buffer at pH 4–5 at room temperature for 10 min. Please refer to Additional file 1: Fig. 6 for HPLC trace of the product. The molar activity of the product was estimated to be 48 GBq/μmol (1300 Ci/mmol) at the time of first injection.
For the high molar activity biodistribution study aimed at maximizing salivary gland uptake, 3 male NSG mice without tumor were injected with 100μL of the [^68Ga]Ga-JB-1498 solution under anesthesia via retro-orbital injection per the above-described protocol. The dose injected was 1.31 ± 0.26 MBq.

[3] = micro-PET imaging in non-tumor-bearing NSG mice; format: in vivo
Protocol: For the micro-PET imaging study, high molar activity [^68Ga]Ga-JB-1498 and [^68Ga]Ga-PSMA-11 were administered to non-tumor bearing NSG mice via tail vein injection. The dose injected was 5.3MBq of [^68Ga]Ga-PSMA-11 and 4.4 MBq of [^68Ga]Ga-JB-1498. Imaging was performed on a nanoScan PET/CT instrument (Mediso USA, Arlington, Virginia). List mode PET acquisition was performed for 45 min starting 25 min post-injection. CT was performed for PET attenuation correction and anatomic localization.

[4] = assessment of stability (radiolysis) by radio-HPLC; format: physicochemical; conditions: no radioprotectant
Protocol: The compound in Figure 7 was not further developed as a potential theranostic agent since the need for a radioprotectant with Ga-68 labeling indicated potentially significant instability with high dose beta and alpha emitters.
Figure 8. Radio-HPLC trace of the compound in Figure 7 seventy minutes after labeling with Ga-68. The labeling reaction consisted of 2 μL of the compound (0.5mg/mL), 40 μL of NaOAc Buffer B, 5 μL ascorbic acid (100mg/mL) and 0.2mL of Eckert & Ziegler GalliaPharm Generator eluate. Buffer B composition is stated above. The HPLC gradient used was 5%-95%B in 15 minutes where solvent B is acetonitrile and solvent A is water with 0.1% formic acid. Column: Phenomenex Synergi Hydro-RP 80A 150x4.6mm 4 micrometer column (Phenomenex, Torrance, CA).
Figure 10. Radio-HPLC trace of [^68Ga]Ga-JB-1498 immediately after radiolabeling. The small signal at the solvent front is a very small amount of [^68Ga]GaCl3. The labeling reaction contained 2 μL of JB1498 (0.5mg/mL), 40 μL of NaOAc Buffer B and 0.2mL of Eckert & Ziegler GalliaPharm Generator eluate. Buffer B composition is stated above. The HPLC gradient used was 5%-95%B in 15 minutes where solvent B is acetonitrile and solvent A is water with 0.1% formic acid. Column: Waters (Milford, MA) Symmetry C18, 5μm, 4.6 x 150 mm column.

[5] = tested on: PSMA-expressing metastatic prostate cancer; design: method as in Sartor et al. [2021]; conditions: 7.4 GBq (200 mCi) regimen; ref Sartor et al. [2021]; cited from earlier work
[6] = N=3, listed as [^68Ga]Ga-JB1498

T1 sequence (Q04609 whole entry): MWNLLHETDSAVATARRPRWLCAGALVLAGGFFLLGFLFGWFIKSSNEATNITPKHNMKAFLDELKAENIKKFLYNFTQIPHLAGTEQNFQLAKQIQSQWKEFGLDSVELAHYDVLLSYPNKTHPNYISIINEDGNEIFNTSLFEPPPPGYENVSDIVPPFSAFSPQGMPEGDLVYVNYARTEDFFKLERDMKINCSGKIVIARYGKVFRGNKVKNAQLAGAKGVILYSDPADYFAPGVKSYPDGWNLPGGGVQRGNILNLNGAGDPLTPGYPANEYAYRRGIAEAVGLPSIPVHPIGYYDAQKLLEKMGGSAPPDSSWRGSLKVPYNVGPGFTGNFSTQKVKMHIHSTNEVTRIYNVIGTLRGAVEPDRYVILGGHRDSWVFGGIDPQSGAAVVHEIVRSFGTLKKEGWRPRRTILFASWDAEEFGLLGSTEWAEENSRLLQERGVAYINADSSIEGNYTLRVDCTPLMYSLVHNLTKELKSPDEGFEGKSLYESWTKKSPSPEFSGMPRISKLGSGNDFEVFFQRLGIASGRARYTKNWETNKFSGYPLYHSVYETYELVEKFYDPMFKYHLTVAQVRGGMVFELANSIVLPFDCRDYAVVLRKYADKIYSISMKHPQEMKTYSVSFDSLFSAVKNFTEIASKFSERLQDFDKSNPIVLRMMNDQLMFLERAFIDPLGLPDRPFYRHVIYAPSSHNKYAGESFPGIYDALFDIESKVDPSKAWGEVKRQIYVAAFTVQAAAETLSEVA

Molecule: NC(=O)C(CCCCNC(=O)CN1CCN(CC(=O)O)CCN(CC(=O)O)CCN(CC(=O)O)CC1)NC(=O)C(Cc1ccc(O)cc1)NC(=O)C(CCC(=O)O)NC(=O)C(CCC(=O)O)NC(=O)C(CCC(=O)O)NC(=O)CCCCCNC(=O)CCC(NC(=O)NC(CCC(=O)O)C(=O)O)C(=O)O (stereo not shown) [JB-1498] ({Glu-CO-γGlu-Ahx}-EEEYK(DOTA)-NH2; configuration not given here)
- Ki (GCP-II): < 0.3 nM

Molecule: NC(=O)C(CCCCNC(=O)CN1CCN(CC(=O)O)CCN(CC(=O)O)CCN(CC(=O)O)CC1)NC(=O)C(Cc1ccc(O)cc1)NC(=O)C(CCC(=O)O)NC(=O)C(CCC(=O)O)NC(=O)C(CCC(=O)O)NC(=O)CCCCCNC(=O)CCC(NC(=O)NC(CCC(=O)O)C(=O)O)C(=O)O.[68Ga] (stereo not shown) [[^68Ga]Ga-JB-1498] ({Glu-CO-γGlu-Ahx}-EEEYK(DOTA)-NH2; configuration not given here)
- Biodistribution, Tumor [1]: 12.09%ID/gram of tissue and 10.49%ID/gram of tissue
- Biodistribution, Tumor ([1]; listed as [^68Ga]Ga-JB1498): 12.09 ± 1.28 %ID/gram of tissue
- Biodistribution, Blood ([1]; PSMA+ tumor-bearing NSG mice): 0.22%ID/gram of tissue
- Biodistribution, Bone ([1]; PSMA+ tumor-bearing NSG mice): 0.11%ID/gram of tissue and 0.10%ID/gram of tissue
- Biodistribution, Heart ([1]; PSMA+ tumor-bearing NSG mice): 0.12%ID/gram of tissue and 0.11%ID/gram of tissue
- Biodistribution, Liver ([1]; PSMA+ tumor-bearing NSG mice): 0.20%ID/gram of tissue and 0.18%ID/gram of tissue
- Biodistribution, Lung ([1]; PSMA+ tumor-bearing NSG mice): 0.24%ID/gram of tissue and 0.21%ID/gram of tissue
- Biodistribution, Muscle ([1]; PSMA+ tumor-bearing NSG mice): 0.22%ID/gram of tissue and 0.19%ID/gram of tissue
- Biodistribution, Salivary gland ([1]; PSMA+ tumor-bearing NSG mice): 0.13 ± 0.01 %ID/gram of tissue and 0.13%ID/gram of tissue and 0.11%ID/gram of tissue
- Biodistribution, Spleen ([1]; PSMA+ tumor-bearing NSG mice, 2 splenic samples): 0.31%ID/gram of tissue and 0.27%ID/gram of tissue
- Biodistribution, Liver ([1]; PSMA+ tumor-bearing NSG mice, listed as [^68Ga]Ga-JB1498): 0.20 ± 0.09 %ID/gram of tissue
- Biodistribution, Kidney ([1]; PSMA+ tumor-bearing NSG mice, single sample of left kidney): 12.98%ID/gram of tissue
- Biodistribution, Blood ([2]; N=3): 0.39%ID/gram of tissue
- Biodistribution, Combined Salivary gland ([2]; N=3): 0.39%ID/gram of tissue
- Biodistribution, Kidney ([2]; N=3): 10.12%ID/gram of tissue
- Biodistribution, Liver ([2]; N=3): 0.68%ID/gram of tissue
- Biodistribution, Lung ([2]; N=3): 0.66%ID/gram of tissue
- Biodistribution, Spleen ([2]; N=3): 2.34%ID/gram of tissue
- Biodistribution, parotid (Left) ([2]; N=3): 0.36%ID/gram of tissue
- Biodistribution, submandibular (Left) ([2]; N=3): 0.42%ID/gram of tissue
- Biodistribution, Combined Salivary gland [2, 6]: 0.39 ± 0.24 %ID/gram of tissue
- Biodistribution, Kidney [2, 6]: 10.12 ± 1.73 %ID/gram of tissue
- salivary gland (SG) and background activity on micro-PET compared to [68Ga]Ga-PSMA-11 ([3]; 1 h post injection, same SUV grayscale): very little
- tracer excretion on micro-PET ([3]; 1 h post injection, most of injected tracer in the urinary bladder): rapid tracer excretion via the kidneys
- salivary gland and kidney uptake on micro-PET images compared to [68Ga]Ga-PSMA-11 ([3]; 1 h post-injection, tail vein, non-tumor bearing NSG mice): much lower
- course of activity in salivary glands and kidneys, dynamic micro-PET ([3]; during the first hour): gradually decreasing
- degradation on radio-HPLC after Ga-68 labeling without radioprotectant ([4]; aqueous sodium acetate buffer): no significant degradation
- radiolysis on radio-HPLC 2.5 hours after synthesis ([4]; compared to trace immediately after radiolabeling): no significant radiolysis

Molecule: [^177Lu]Lu-PSMA-617
- complete response [5]: 9%
- partial response [5]: 42%
